# Counter-ions that a name gives are not always drawn. Peptide text beside a SMILES is read from it. * marks the point of attachment. Cbz = O=C(OCc1ccccc1)*; CH2F = FC*
# Tested on: PRKACA-PRKAR2A interaction (SmBiT-PRKACA / LgBiT-PRKAR2A), protein kinase A
# Design: NanoLuc complementation counter-screen in cell extract, PRKACA with PRKAR2A, loss of luminescence, detects NanoLuc interference
# Settings: 0.5 h, 20 µM; inhibitor
row,SMILES,Inh (PKA)
1,"Cc1sc2c(c1C)C(c1ccc(Cl)cc1)=N[C@@H](CC(=O)Nc1ccc(O)cc1)c1nnc(C)n1-2 [UM0139428:02, OTX-015]",7.269
2,"CC(C)(O)CNc1nc(Nc2ccnc(C(F)(F)F)c2)nc(-c2cccc(C(F)(F)F)n2)n1 [UM0139434:02, AG-221 (Enasidenib)]",31.79

# Same assay, conditions: counter-screen for NanoLuc interference, 0.5 h, 20 µM, inhibitor, Inh (PKA)
row,Inh (PKA),SMILES
1,0.8082%,"Nc1ccn([C@@H]2O[C@H](CO)[C@@H](O)C2(F)F)c(=O)n1 [UM0141399:01, Gemcitabine HCl]"
2,8.306%,"CC(=O)Oc1cc2c(s1)CCN(C(C(=O)C1CC1)c1ccccc1F)C2 (stereo not drawn) [UM0141405:01, Prasugrel]"

# Same assay, conditions: counter-screen for NanoLuc interference; 0.5 h, 20 µM; inhibitor
row,Inh (PKA),SMILES
1,1.163%,"Cn1nnc2c(C(N)=O)ncn2c1=O [UM0135509:03, Temozolomide]"
2,3.589%,"Cc1[nH]c2ccccc2c1CCNCc1ccc(/C=C/C(=O)NO)cc1 [UM0135511:02, Panobinostat (LBH589)]"
3,17.72%,"CN(C)CC[C@H](CSc1ccccc1)Nc1ccc(S(=O)(=O)NC(=O)c2ccc(N3CCN(Cc4ccccc4-c4ccc(Cl)cc4)CC3)cc2)cc1[N+](=O)[O-] [UM0136062:02, ABT-737]"
4,24.97%,"Cc1cnc(Nc2ccc(OCCN3CCCC3)cc2)nc1Nc1cccc(S(=O)(=O)NC(C)(C)C)c1 [UM0136753:02, TG101348 (SAR302503)]"
5,15.63%,"Cc1cc(Nc2nc(N[C@@H](C)c3ncc(F)cn3)ncc2Cl)[nH]n1 [UM0136754:02, AZD1480]"
6,3.804%,"N#CCNC(=O)c1ccc(-c2ccnc(Nc3ccc(N4CCOCC4)cc3)n2)cc1 [UM0136756:02, CYT387]"
7,77.2%,"C/C(=C\C(=O)Nc1ccccc1C(=O)O)c1ccc2ccccc2c1 [UM0138522:02, BIBR 1532]"
8,13.43%,"CC1(COc2ccc3c(c2)ncn3-c2ccc3cccc(N4CCC(N)CC4)c3n2)COC1 [UM0139425:02, Crenolanib (CP-868596)]"
9,1.482%,"CCCCc1nc2cc(/C=C/C(=O)NO)ccc2n1CCN(CC)CC [UM0139427:02, Pracinostat (SB939)]"
10,13.98%,"O=C1[C@H](Cc2ccc(O)cc2)N2C(=O)CCN(C(=O)NCc3ccccc3)[C@H]2CN1Cc1cccc2ccccc12 [UM0139430:02, ICG 001]"
11,2.094%,"N#Cc1ccnc(N2C(=O)CC[C@H]2C(=O)N(c2cncc(F)c2)[C@H](C(=O)NC2CC(F)(F)C2)c2ccccc2Cl)c1 [UM0139433:02, AG-120]"
12,28.46%,"CCOC(=O)c1sc(NC(=O)c2ccco2)c(SC#N)c1C [UM0139891:02, CBR-5884]"
13,35.89%,"NC(=O)Nc1cc(-c2cccc(F)c2)sc1C(=O)N[C@H]1CCCNC1 [UM0139975:02, AZD7762]"
14,-3.585%,"O=C(O)O [UM0141172:02, Lithium carbonate]"
15,1.556%,"NCC(=O)NCC(=O)N[C@@H](Cc1ccc(O)cc1)C(=O)N[C@@H](CCCN=C(N)N)C(=O)O [UM0141375:01, Papain Inhibitor] (H-GGYR-OH)"
16,2.769%,"Cn1cc(-c2ccc3nnc(Sc4ccc5ncccc5c4)n3n2)cn1 [UM0141386:01, SGX-523]"
17,1.515%,"C=C1C[C@@H]2[C@H](CC[C@]3(C)C(=O)CC[C@@H]23)[C@@]2(C)C=CC(=O)C=C12 [UM0141388:01, Exemestane]"
18,3.167%,"CCc1cc(Nc2nccc(-c3c(-c4ccc(OC)c(C(=O)Nc5c(F)cccc5F)c4)nc4ccccn34)n2)c(OC)cc1N1CCC(N2CCN(S(C)(=O)=O)CC2)CC1 [UM0141389:01, GSK1904529A]"
19,1.331%,"N#Cc1ccc(C(c2ccc(C#N)cc2)n2cncn2)cc1 [UM0141390:01, Letrozole]"
20,13.81%,"CCOc1cc(N)c(Cl)cc1C(=O)NCC1CN(Cc2ccc(F)cc2)CCO1 (stereo not drawn) [UM0141391:01, Mosapride Citrate]"
21,2.002%,"C=CC[N+]1([C@H]2C[C@H]3[C@@H]4CC[C@H]5C[C@H](O)[C@@H](N6CCOCC6)C[C@]5(C)[C@H]4CC[C@]3(C)[C@H]2OC(C)=O)CCCC1 [UM0141392:01, Rocuronium Bromide]"
22,6.926%,"COc1cc(N2CCC(N3CCN(C)CC3)CC2)ccc1Nc1ncc(Cl)c(Nc2ccccc2P(C)(C)=O)n1 [UM0141393:01, AP26113]"
23,2.946%,"C[C@@H](O)[C@H]1C(=O)N2C(C(=O)[O-])=C(SC3Cn4cnc[n+]4C3)[C@H](C)[C@H]12 (stereo partly drawn) [UM0141395:01, Biapenem]"
24,30.48%,"C=CC(=O)Nc1cccc(Oc2nc(Nc3ccc(N4CCN(C)CC4)cc3OC)ncc2Cl)c1 [UM0141397:01, WZ4002]"
25,37.33%,"C=CC(=O)Nc1cccc(Sc2nc(Nc3ccc(N4CCN(C)CC4)cc3)ncc2Cl)c1 [UM0141398:01, WZ8040]"
26,8.683%,"COc1ccc(S(=O)(=O)Nc2cccnc2Nc2ccc(O)cc2)cc1 [UM0141402:01, ABT-751 (E7010)]"

row,Inh (PKA),SMILES
1,2.168%,"C[C@@H](CN1CC(=O)NC(=O)C1)N1CC(=O)NC(=O)C1 [UM0141403:01, Dexrazoxane HCl (ICRF-187, ADR-529)]"
2,24%,"O=C(N/N=C/c1ccc(O)c(O)c1)c1cc2ccccc2cc1O [UM0141404:01, Dynasore]"
3,40.66%,"Oc1ccc(-c2nc(-c3ccc(F)cc3)c(-c3ccncc3)[nH]2)cc1 [UM0141406:01, SB202190 (FHPI)]"
4,3.779%,"CCNC(=O)Nc1ccc(-c2nc3c(c(N4CCOC[C@@H]4C)n2)CCN(C2COC2)C3)cc1 [UM0141407:01, GDC-0349]"
5,7.996%,"C[C@]12C=CC(=O)N[C@@H]1CC[C@@H]1[C@@H]2CC[C@]2(C)[C@@H](C(=O)Nc3cc(C(F)(F)F)ccc3C(F)(F)F)CC[C@@H]12 [UM0141408:01, Dutasteride]"
6,12.87%,"C[C@@H](O[C@H]1OCCN(Cc2n[nH]c(=O)[nH]2)[C@H]1c1ccc(F)cc1)c1cc(C(F)(F)F)cc(C(F)(F)F)c1 [UM0141409:01, Aprepitant]"
7,28.45%,"O=C(O)CCc1ccc(NCc2cccc(Oc3ccccc3)c2)cc1 [UM0141410:01, GW9508]"
8,3.84%,"CC[C@@H]([C@H](C)O)n1ncn(-c2ccc(N3CCN(c4ccc(OC[C@@H]5CO[C@@](Cn6cncn6)(c6ccc(F)cc6F)C5)cc4)CC3)cc2)c1=O [UM0141411:01, Posaconazole]"
9,8.901%,"C[C@H](Nc1ncnc2nc[nH]c12)c1cc2cccc(Cl)c2c(=O)n1-c1ccccc1 [UM0141412:01, IPI-145 (INK1197)]"
10,0.7211%,"CC(C)OC(=O)OCOP(=O)(CO[C@H](C)Cn1cnc2c(N)ncnc21)OCOC(=O)OC(C)C [UM0141413:01, Tenofovir Disoproxil Fumarate]"
11,8.649%,"CCN1CCN(Cc2ccc(Nc3ncc(F)c(-c4cc(F)c5nc(C)n(C(C)C)c5c4)n3)nc2)CC1 [UM0141414:01, LY2835219]"
12,20%,"CCOc1cc2ncc(C#N)c(Nc3ccc(F)c(Cl)c3)c2cc1NC(=O)/C=C/CN(C)C [UM0141415:01, Pelitinib (EKB-569)]"
13,5.945%,"C=CC(=O)Nc1cc2c(Nc3ccc(F)c(Cl)c3)ncnc2cc1OCCCN1CCOCC1 [UM0141416:01, Canertinib (CI-1033)]"
14,15.47%,"Oc1nc(-c2ccc(C(F)(F)F)cc2)nc2c1CSCC2 [UM0141417:01, XAV-939]"
15,13.87%,"COc1cc2c(Oc3ccc4[nH]c(C)cc4c3F)ncnc2cc1OCCCN1CCCC1 [UM0141418:01, Cediranib (AZD217)]"
16,1.417%,"COC(=O)C[C@H](NC(=O)[C@H](C)NC(=O)[C@@H](NC(=O)OCc1ccccc1)C(C)C)C(=O)CF [UM0141421:01, Z-VAD-FMK] (Cbz-Val-Ala-Asp(OMe)-CH2F)"
17,1.796%,"COC(=O)CC(NC(=O)OC(C)(C)C)C(=O)CF [UM0141423:01, Boc-D-FMK]"
18,7.16%,"Nc1nc(OCc2cc(Br)cs2)c2[nH]cnc2n1 [UM0141425:01, Lomeguatrib]"
19,1.344%,"O=C(O)C(Cc1c[nH]c2ccccc12)N1C(=O)c2ccccc2C1=O (stereo not drawn) [UM0141426:01, RG 108]"
20,1.254%,"COC(=O)CC[C@H](NC(=O)[C@H](CC(=O)OC)NC(=O)OCc1ccccc1)C(=O)N[C@H](C(=O)N[C@@H](CC(=O)OC)C(=O)CF)C(C)C [UM0141427:01, Z-DEVD-FMK]"
21,1.642%,"COC(=O)C[C@H](NC(=O)[C@H](CCSC)NC(=O)[C@H](CCC(N)=O)NC(=O)[C@H](CC(=O)OC)NC(=O)OCc1ccccc1)C(=O)CF [UM0141428:01, Z-DQMD-FMK] (Cbz-D(OMe)QMD(OMe)-CH2F)"
22,-0.4508%,"COC(=O)C[C@H](NC(=O)[C@H](C)NC(=O)[C@@H](NC(=O)[C@H](CC(=O)OC)NC(=O)[C@@H](NC(=O)OCc1ccccc1)C(C)C)C(C)C)C(=O)CF [UM0141429:01, Z-VDVAD-FMK] (Cbz-VD(OMe)VAD(OMe)-CH2F)"
23,-0.4163%,"CC[C@H](C)[C@H](NC(=O)[C@H](CCC(=O)OC)NC(=O)[C@@H](NC(=O)OCc1ccccc1)C(C)C)C(=O)N[C@@H](CC(=O)OC)C(=O)CF [UM0141430:01, Z-VEID-FMK] (Cbz-VE(OMe)ID(OMe)-CH2F)"
24,2.243%,"COC[C@@H]1CCCN1S(=O)(=O)c1ccc2c(c1)C(=O)C(=O)N2 [UM0141431:01, Caspase-3/7 Inhibitor I]"
25,-0.2737%,"CCCNC(=O)[C@H]1O[C@@H]1C(=O)N[C@H](C(=O)N1CCC[C@H]1C(=O)O)[C@@H](C)CC [UM0141432:01, CA 074]"

row,SMILES,Inh (PKA)
1,"C=CC(=O)N1C/C(=C\c2ccc([N+](=O)[O-])cc2)C(=O)/C(=C/c2ccc([N+](=O)[O-])cc2)C1 [UM0139980:02, NSC 687852 (b-AP15)]",14.65%
2,"CCCCCCCCCC(=O)N[C@@H](Cc1c[nH]c2ccccc12)C(=O)N[C@H](CC(N)=O)C(=O)N[C@@H](CC(=O)O)C(=O)N[C@@H]1C(=O)NCC(=O)N[C@@H](CCCN)C(=O)N[C@@H](CC(=O)O)C(=O)N[C@H](C)C(=O)N[C@@H](CC(=O)O)C(=O)NCC(=O)N[C@H](CO)C(=O)N[C@@H]([C@H](C)CC(=O)O)C(=O)N[C@@H](CC(=O)c2ccccc2N)C(=O)O[C@@H]1C [UM0141387:01, Daptomycin]",0.4906%
